# Results from patent US11077159B2, “Compositions from halophyte plants and methods of use thereof” (KHALIFA UNIVERSITY OF SCIENCE AND TECHNOLOGY, priority 2017, dated 2021).
# Several values for one entry are separate records, joined by “and”; a condition that tells them apart may be missing. Identical values can stand only once.
# Legend:
# [1] = Scavenging of reactive oxygen species; conditions: control reference, concentration not given
# [2] = test system: IL-8 release of NHEK; experiment: IL-8 release of NHEK stimulated by PMA (ELISA), anti-inflammatory; format: cell-based, human; conditions: 10^−9M
# Text: (§1) The matrix metalloproteinase-1 (MMP-1) assay using a specific ELISA kit was used to evaluate anti-aging properties. The migration/proliferation of NHEK using kinetic image analysis of the wound recovery was used to evaluate cell renewal properties. The IL-8 release on NHEK stimulated by PMA using a specific ELISA kit was used to evaluate anti-inflammatory properties.
# [3] = test system: Hyaluronic acid; experiment: Hyaluronic acid synthesis; format: cell-based; conditions: 10^−7M
# [4] = DPPH free radical scavenging (antioxidant) assay; format: biochemical; conditions: positive control, 0.3 mg/mL; ± standard error
# Method: Two controls were used in the DPPH assay; a negative control containing all reagents except for the test extract, and a positive control using a final concentration of 0.33 mg/mL L-ascorbic acid as antioxidant instead of test extract. Radical scavenging activity was calculated as follows: Scavenging activity (%)=[(Acontrol−Atest)/[…]]*100 Where Acontrol is the negative control (without test extract), and Atest is the absorbance with the botanical extract. All analysis were carried out in triplicate.
# [5] = test system: matrix metalloproteinase-1 (MMP-1) release; experiment: MMP-1 release by aged fibroblasts (ELISA), anti-aging; format: cell-based, human; conditions: 10^−7M
# Text: as §1, with “[…] The matrix” for “The matrix”
compound,measurement,setting,value
Vitamin-E,ROS scavenged,[1],92%
CN[C@@H]1C[C@H]2O[C@@](C)([C@@H]1OC)n1c3ccccc3c3c4c(c5c6ccccc6n2c5c31)C(=O)NC4 [Staurosporine],IL-8 % Stimulated control,[2],54%
same,IL-8 Mean,[2]; PMA 0.1 μg/ml,1685 pg/mL
same,IL-8 (pg/ml) dilution factor adjusted,"[2]; PMA 0.1 μg/ml, non-diluted sample, single replicate",1579 pg/mL and 1809 pg/mL and 1668 pg/mL
CC1=C(/C=C/C(C)=C/C=C/C(C)=C/C(=O)O)C(C)(C)CCC1 [Retinoic acid],Hyaluronic acid % Control,[3],241%
same,Hyaluronic acid % Stimulation,[3],141%
same,Hyaluronic acid Mean,[3],655.7 ng/mL
same,Hyaluronic acid (ng/ml) dilution factor adjusted,[3]; single replicate,677.2 ng/mL and 632.1 ng/mL and 657.9 ng/mL
O=C1O[C@H]([C@@H](O)CO)C(O)=C1O [L-ascorbic acid],DPPH scavenging activity,[4],95.79±0.17%
C[C@@H]1C[C@H]2[C@@H]3CCC4=CC(=O)C=C[C@]4(C)[C@@]3(F)[C@@H](O)C[C@]2(C)[C@@]1(O)C(=O)CO [Dexamethasone],MMP-1 % Control (P17-F),[5],58%
same,inhibition at 0.1 µM,"[5]; Homo sapiens, Fibroblast",42%
same,MMP-1 (ng/ml) dilution factor adjusted,"[5]; P17-F aged fibroblasts, single replicate",8.7 ng/mL and 8.2 ng/mL and 8.5 ng/mL
same,MMP-1 Mean,[5]; P17-F,8.5 ng/mL
